For data set [1] the following is noted: in vitro; cited from earlier work.
For data set [2] the following is noted: cited from earlier work; for pharmacokinetic comparison of leucovorin and levoleucovorin: in vivo.
Data set [3] deals with solid colorectal cancer tumors (mCRC, incl. BRAF- or KRAS-mutated). As to the kind of experiment: Clinical study ISO-CC-005 (Phase I/IIa), safety extension cohorts and follow-up study: tumour response by CT, ORR per RECIST 1.1. The data set is classed as in vivo, human. Conditions: 19 patients harbouring either mutated KRAS or BRAF; 16 weeks and beyond; 120 mg/m2 arfolitixorin. An excerpt: As used herein, the term ORR shall refer to the Objective Response Rate, i.e. the proportion of patients with a reduction in tumor burden of a predefined amount. […] (Note: the appearance of one or more new lesions is also considered progression). […] As used herein, the term best ORR shall refer to the best overall response rate as per RECIST guideline version 1.1 for the treatment period, where applicable. Arfolitixorin has been in development for a number of years and has been studied in several clinical studies. […] 2019. The completion of the study was announced in January 2020. In total, 105 patients were included in the study. Applicant completed the dose definition part of ISO-CC-005 in March 2018, which evaluated the safety and efficacy of arfolitixorin in patients with mCRC. Shortly after, applicant started two additional treatment groups in 2018 to generate more safety and efficacy data, i.e. the safety extension Cohort #18 (Treatment Arm #4) and Cohort #19 (Treatment Arm #6). The aim was to evaluate as many patients as possible from the additional treatment groups after a treatment period of 16 weeks+. On 30 Sep. […] The goal with the Dose-finding Part of the Main Study was to establish the Arfolitixorin dose level assessed as having the most favourable profile, i.e. the selected phase 2 dose (SP2D). […] Response was measured in short- and long-term assessments. […]

For the molecule `Nc1nc(=O)c2c([nH]1)NC[C@H](CNc1ccc(C(=O)N[C@@H](CCC(=O)O)C(=O)O)cc1)N2C=O` [1-LV], the “conversion to the biologically available methyl-tetrahydrofolate form” value in data set [1] is recorded as “rapidly converted”. Besides, in data set [2], the “pharmacokinetic comparison of leucovorin and levoleucovorin” value is given as “pharmacokinetically identical”.

As to `Nc1nc2c(c(=O)[nH]1)N(C=O)C(CNc1ccc(C(=O)N[C@@H](CCC(=O)O)C(=O)O)cc1)CN2` (some centres unmarked) [Leucovorin, 5-formyl tetrahydrofolic acid], the “pharmacokinetic comparison of leucovorin and levoleucovorin” value in data set [2] is listed as “pharmacokinetically identical”.

Regarding `Nc1nc2c(c(=O)[nH]1)N1CN(c3ccc(C(=O)N[C@@H](CCC(=O)O)C(=O)O)cc3)C[C@H]1CN2` [[6R]-5,10-MTHF, [6R]-5,10-methylenetetrahydrofolate], the “best ORR” value in data set [3] was more than 50%.

For `Nc1nc2c(c(=O)[nH]1)N(C=O)[C@H](CNc1ccc(C(=O)N[C@@H](CCC(=O)O)C(=O)O)cc1)CN2` [d-LV], in data set [2] (kidneys), the excretion entry is “slowly excreted by the kidneys”.

The record behind these values is patent US20230095428A1, “[6R]-MTHF IN 5-FU BASED CHEMOTHERAPY OF BRAF- OR KRAS-MUTATED COLORECTAL CANCER” (Isofol Medical AB, priority 2021, published 2023).
